# Laboratory results taken from patent US20230046078A1, “METHODS OF USING SUBSTITUTED FLAVONES FOR TREATING BONE DISORDERS” (EMORY UNIVERSITY, priority 2021, published 2023).
# “Also recorded” adds a separate entry of the source.
# Key:
# [1] = test system: MC3T3-E1 cells; assay type: cell-based, Murine
# [2] = test system: AEP; assay: AEP activity assay on MC3T3-E1 cell lysates; assay type: cell-based, Murine
# Experimental: Cell lysates (10 μg) were incubated in 200 μl assay buffer (20 mM citric acid, 60 mM Na2HPO4, 1 mM EDTA, 0.1% CHAPS, and 1 mM DTT, pH 6.0) containing 20 μM δ-secretase substrate Z-Ala-Ala-Asn-AMC (Bachem, Bubendorf, Switzerland). AMC released by substrate cleavage was quantified by measuring at 460 nm in a fluorescence plate reader at 37° C. for 2 h in kinetic mode.
# [3] = test system: MC3T3-E1 cells; assay type: cell-based, Murine; remark: listed apart in the source
# Experimental: Total RNA was isolated by TRIzol (Life Technologies, Carlsbad, Calif.). Reverse transcription was performed with SuperScript III reverse transcriptase (Life Technologies). Gene-specific primers and probes were designed and bought from Taqman (Life Technologies). All real-time PCR reactions were performed using the ABI 7500-Fast Real-Time PCR System and the Taqman Universal Master Mix Kit (Life Technologies). The relative quantification of gene expression was calculated using the ΔΔCt method. Predesigned real-time PCR primers from Applied Biosystems (Waltham, Mass.) were used for the analysis of Opg (Tnfrsf11b; Mm0043545_m1), RANK-L (Tnfsf11; Mm00441908_m1), AEP (Lgmn; Mm01325350_m1), GAPDH (Gapdh; Mm99999915_g1).
# [4] = test system: MC3T3-E1 cells; assay: ELISA of OPG and RANK-L secreted into the medium of MC3T3 cells; assay type: cell-based, Murine
# From the text: FIG. 9, Panel A contains representative images of ALP staining in […] cells treated with BDNF or 7,8-DHF combined with or without K252a for 14 days (n=3 independent experiments) (Scale bar, 5 mm (upper panel), 200 μm (lower panel)). […] FIG. 9, Panel C contains Western blots for MC3T3 cells cultured in complete medium or osteogenic induction medium (OIM) with BDNF or 7,8 DHF combined with or without K252a for 4 days. […] FIG. 9, Panel D contains graphs of the relative protein levels of C/EBPP, p-C/EBPβ, AEP, RANK-L, OPG, Osterix, p-TrkB/TrkB and p-Akt/AKT in MC3T3 cells cultured in the complete medium or OIM with BDNF or 7,8-DHF combined with or without K252a for four days. Data are shown as mean±SEM of three independent experiments, one-way ANOVA. Data are shown in each graph from left to right as 1) Control, 2) OIM+DMSO, 3) OIM+BDNF, 4) OIM+7,8-DHF, 5) OIM+BDNF+K252a, and 6) OIM+7,8-DHF+K252a. FIG. 9, Panel E contains graphs of an AEP enzymatic activity assay. BDNF and 7,8-DHF inhibit AEP activities, and K252a abolish BDNF and 7,8-DHF's effects. Data are shown as mean±SEM of 3 independent experiments, one-way ANOVA. Data are shown in each graph from left to right as 1) Control, 2) OIM+DMSO, 3) OIM+BDNF, 4) OIM+7,8-DHF, 5) OIM+BDNF+K252a, and 6) OIM+7,8-DHF+K252a. FIG. 9, Panel F contains graphs of qPCR results showing that OPG mRNA expression increases in MC3T3 cells after 7,8-DHF treatment for four days. Data are shown as mean±SEM of three independent experiments, one-way ANOVA. Data are shown in each graph from left to right as 1) Control, 2) OIM+DMSO, 3) OIM+BDNF, 4) OIM+7,8-DHF, 5) OIM+BDNF+K252a, and 6) OIM+7,8-DHF+K252a. FIG. 9, Panel G contains graphs showing that 7,8-DHF increases OPG and decreases the RANK-L/OPG ratio. Levels of OPG and RANK-L proteins secreted into the medium were measured by ELISA. Data are shown as mean±SEM of 3 independent experiments, one-way ANOVA. Data are shown in each graph from left to right as 1) Control, 2) OIM+DMSO, 3) OIM+BDNF, 4) OIM+7,8-DHF, 5) OIM+BDNF+K252a, and 6) OIM+7,8-DHF+K252a.
# [5] = test system: ovariectomized (OVX) WT and BDNF+/− mice; assay type: in vivo
# [6] = test system: ovariectomized (OVX) WT and BDNF+/− mice; assay type: in vivo; remark: listed apart in the source
# [7] = test system: ovariectomized (OVX) WT and BDNF+/− mice; assay: H&E, TRAP staining and quantitative bone histomorphometry of distal femur in OVX WT and BDNF+/− mice treated with R13; assay type: in vivo
# Experimental: (§1) Female C57BL6/J wild-type mice and BDNF+/−mice were obtained from Jackson Laboratory (MMRRC stock #000664 and 002267), then held and bred. The AEP knockout mice were generated on a mixed C57BL/6 and 129/Ola background. All in vivo experiments were carried out in female mice. All mice were kept under specific pathogen-free conditions in an environmentally controlled clean room and housed at 22° C. on a 12-h/12-h light/dark cycle. Food and water were provided ad lib. WT, BDNF+/−mice, AEP WT and AEP knockout mice were bilaterally ovariectomized or sham operated at 12 weeks of age. One week after ovariectomy, the WT and BDNF+/−mice received vehicle or R13 dissolved in 5% DMSO/0.5% methylcellulose at dose of 21.8 mg/kg/d, six days per week, for 8 weeks by gavage. In another group, 4 weeks after ovariectomy, WT mice were treated with IgG or anti-RANK-L monoclonal antibody (10 mg/kg, twice per week) by single subcutaneous injection for 4 weeks.
# (§2) The measurements, indices and units for histomorphometric analysis were recommended by the Nomenclature Committee of the American Society of Bone and Mineral Research. Mice were injected with calcein (25 μg/g) subcutaneously at day 10 and day 3 before sacrifice. Bone histomorphometric analysis was performed at the University of Alabama at Birmingham Center for Metabolic Bone Disease-Histomorphometry and Molecular Analysis Core Laboratory. The Goldner's trichrome-stained plastic-embedded sections of calcein-double labeled femora of the mice were analyzed by an operator blinded as to the nature of the samples.
# To further explore the roles of BDNF signaling in bone resorption and formation after OVX, hematoxylin and eosin (H&E) staining was conducted to analyze bone morphology and white edipocytes in both WT and BDNF+/−mice after OVX surgery. […] These observations were also validated by the single and double-labeled surface and inter-label thickness analysis (FIG. 7). […] Treatments with R13 inhibited N.Oc/BS in both WT and BDNF+/−mice after OVX.
# [8] = test system: WT mice; settings: mouse, in vivo
# [9] = test system: ovariectomized (OVX) WT mice; assay: Serum markers in OVX WT mice, R13 versus anti-RANK-L antibody; assay type: in vivo
# Experimental: as §1
# Serum Osteocalcin (Novus Biologicals, Littleton, Colo., Cat. NBP2-68151), CTX (Immunodiagnostic systems, East Boldon, UK, Cat. AC-06F1), RANK-L and OPG (Abcam, Cat. ab269553 and ab203365) were measured by specific Elisa assays.
# Given that R13 protects the bone by increase OPG, the RANK-L antibody was used as a comparator drug. Four weeks after ovariectomy, WT mice were treated with IgG or anti-RANK-L monoclonal antibody consecutively for 4 weeks.
# [10] = test system: ovariectomized (OVX) WT mice; assay: H&E, TRAP staining and histomorphometry of distal femur in OVX WT mice, R13 versus anti-RANK-L antibody; assay type: in vivo; settings: WT mice after OVX
# Experimental: as §1, §2
# Representative data of double labeling of the trabecular bone in WT mice with OVX after R13 or anti-RANK-L antibody treatment are provided in FIG. 14, Panel C.
# [11] = OVX mice, R13 21.8 mg/kg orally, eight weeks, vs vehicle control
# [12] = […], R13 21.8 mg/kg orally, eight weeks, compared to OVX group
# [13] = OVX WT and BDNF+/− mice upon R13 treatment
# [14] = among the groups regardless of the treatment
molecule,measurement,setting,value
COC(=O)[C@@]1(O)C[C@H]2O[C@]1(C)n1c3ccccc3c3c4c(c5c6ccccc6n2c5c31)C(=O)NC4 [K252a],"effects triggered by BDNF or 7,8-DHF (Western blot) under K252a",[1]; K252a 100 nM pretreatment,potently blunted
same,"BDNF and 7,8-DHF's effects on AEP activities under K252a",[2]; K252a 100 nM pretreatment,abolish
same,"BDNF/7,8-DHF-elevated RANK-L mRNAs under K252a",[3]; K252a 100 nM pretreatment,not affected
same,"BDNF/7,8-DHF-promoted OPG mRNA levels under K252a",[3]; K252a 100 nM pretreatment,abolished
same,"RANK-L/OPG ratio in BDNF and 7,8-DHF groups under K252a",[4]; K252a 100 nM pretreatment,highly augmented
"CNC(=O)Oc1ccc2c(=O)cc(-c3ccccc3)oc2c1OC(=O)NC [R13, 4-oxo-2-phenyl-4H-chromene-7,8-diyl bis(methylcarbamate)]",trabecular spacing (Tb.Sp),"[5]; OVX mice, both types, R13 21.8 mg/kg orally, eight weeks, vs OVX group",decreased
same,trabecular number (Tb.N),[5]; [11],higher
same,trabecular thickness (Tb.Th),[5]; [11],higher
same,connectivity density (Conn.D),[5]; [12],higher
same,structure model index (SMI),[5]; [12],lower
same,trabecular bone volume fraction (BV/TV),"[5]; […], R13 21.8 mg/kg orally, six days per week for eight weeks, compared to OVX group",higher
same,bone density,"[5]; after OVX, overall conclusion",strongly increase
same,relative cortical bone area to tissue area (Ct.Ar/Tt.Ar),"[5]; among the groups, R13 21.8 mg/kg orally",remained unchanged
same,average cortical thickness (Ct.Th),"[5]; mouse, in vivo, po, 21.8 mg/kg",escalated
same,cortical bone cortical area (Ct.Ar),"[5]; mouse, in vivo, po, 21.8 mg/kg",escalated
same,RANK-L/OPG ratio (serum),[6]; [13],significant reduction
same,serum OPG,[6]; [13],substantially increased
same,serum CTX levels,[6]; R13-treated OVX mice compared to sham group,higher
same,serum osteocalcin,[6]; R13-treated OVX mice compared with vehicle-treated sham group,increased
same,serum BDNF levels,[6]; among the groups,remained equivalent
same,OVX-induced bone loss,[7]; R13 treatment,attenuated; also recorded: greatly blocks
same,OVX-induced osteoclast cells (TRAP staining),[7]; WT and BDNF+/− mice,diminished
same,N.Oc/BS,[7]; WT and BDNF+/− mice after OVX,inhibited
same,adipocyte content in the bone (H&E staining),"[7]; after OVX, WT and BDNF+/− mice",decreased
same,trabecular bone tissue (H&E staining),"[7]; after OVX, WT and BDNF+/− mice",increased
same,bone formation rate (BFR),"[7]; after OVX, vehicle vs R13",vehicle-treated mice exhibited lower MAR and BFR as compared to R13-treated mice
same,mineral apposition rate (MAR),"[7]; after OVX, vehicle vs R13",vehicle-treated mice exhibited lower MAR and BFR as compared to R13-treated mice
same,MS/BS ratio,[7]; [14],remained comparable
same,percentage of surfaces covered by OCs (Oc.S/BS),[7]; [14],remained comparable
same,N.Ob/BS,[7]; vehicle and R13-treated mice,no significant differences
same,ObS/BS,[7]; vehicle and R13-treated mice,no significant differences
same,BV/TV,[8],elevated
same,Conn.D.,[8],no significant difference
same,Ct.Ar,[8],no significant difference
same,Ct.Th,[8],no significant difference
same,SMI,[8],no significant difference
same,Tb.N,[8],no significant difference
same,Tb.Sp,[8],no significant difference
same,Tb.Th,[8],no significant difference
same,serum BDNF,[8],no significant difference
same,serum CTX,[8],no significant difference
same,serum OPG level,[8],significantly increased
same,serum RANK-L,[8],without affecting; also recorded: no significant difference
same,serum RANK-L/OPG ratio,[8],no significant difference
same,serum osteocalcin,[8],no significant difference
same,serum OPG,[9],robustly elevated
same,serum RANK-L,[9],without altering
same,serum RANK-L/OPG ratio,[9],significant reduction
same,OVX-induced osteoclast cells (TRAP staining),[10],diminished
same,trabecular bone marrow density (H&E staining),[10],increased
same,white adipocyte contents in the bone (H&E staining),[10],decreased
same,BFR/BS,[10]; distal femur trabecular bone,significantly increased
same,N.Oc/BS,[10]; distal femur trabecular bone,decreased
"BDNF: Brain-derived neurotrophic factor, a neurotrophin; TrkB ligand",AEP expression,"[1]; OIM, 4 days",diminished
same,OPG protein (Western blot),"[1]; OIM, 4 days",augmentation
same,RANK-L protein (Western blot),"[1]; OIM, 4 days",augmentation
same,AEP protease activities,"[2]; MC3T3 cells in OIM, substrate Z-Ala-Ala-Asn-AMC",greatly blocked; also recorded: inhibit
same,OPG mRNA levels,"[3]; OIM, four days",strong stimulatory effect
same,RANK-L mRNA,"[3]; OIM, four days",elevated
same,OPG protein secreted into the medium,"[4]; OIM, vs OIM alone",further augmented
same,RANK-L protein secreted into the medium,"[4]; OIM, vs OIM alone",further augmented
same,RANK-L/OPG ratio (ELISA),"[4]; OIM, vs OIM alone","OIM alone were significantly higher than BDNF and 7,8-DHF"
